Tests used:
Fmr1^−/− mice [1] = test: Novelty-suppressed feeding; format: in vivo, mouse; conditions: chronic NaBr 250 mg/kg once daily
Method: (§1) Mice were treated with vehicle (NaCl 0.9%; ip, 10 or 20 ml/kg), NaBr (Sigma-Aldrich, Saint-Quentin Fallavier, France) administered either chronically (once a day, 10, 30, 70, 125, 250 and 500 mg/kg; i.p. or per os, in a volume of 20 ml/kg—except for combination with VU0155041: […]) or acutely (250 mg/kg, 20 ml/kg), KBr (Sigma-Aldrich, Saint-Quentin Fallavier, France; 145 mg/kg; i.p., 20 ml/kg), bumetanide (R&D systems, Minneapolis, USA, 0.5 and 2 mg/kg; i.p., 20 ml/kg) or VU0155041 (Cayman Chemicals, Ann Arbor, USA, once a day, i.p., 1 mg/kg, 10 ml/kg). […] When treatment was given chronically, behavioral testing started 8 days after beginning of daily administration. Treatment was maintained for 8 to 18 consecutive days (see timelines in FIGS. 1 and 4), allowing thorough behavioral phenotyping. On testing days, or when treatment was given acutely, drugs (or vehicle) were administered 30 min before behavioral assays.
(§2) Novelty-suppressed feeding. Novelty-suppressed feeding (NSF) was measured in 24-hr food-deprived mice, isolated in a standard housing cage for 30 min before individual testing. Three pellets of ordinary lab chow were placed on a white tissue in the center of each arena, lit at 60 lx. Each mouse was placed in a corner of an arena and allowed to explore for a maximum of 15 min. Latency to feed was measured as the time necessary to bite a food pellet. Immediately after an eating event, the mouse was transferred back to home cage (free from cage-mates) and allowed to feed on lab chow for 5 min. Food consumption in the home cage was measured.
(§3) To this purpose, we evaluated the effects of chronic NaBr administration at the dose of 250 mg/kg on autism-sensitive behaviors in these lines (FIG. 3A).

Shank3^Δex13-16−/− mice [2] = test: Novelty-suppressed feeding; format: in vivo, mouse; conditions: Shank3Δex13-16−/− mice; chronic NaBr 250 mg/kg once daily
Method: as §1, §2, §3

Oprm1^−/− mice [3] = test: Behavioral tests of social, repetitive and anxious behavior (oral NaBr, KBr; data not shown); conditions: mouse, in vivo, po, 250 mg/kg
Method: as §1
Also, we assessed the behavioral effects of chronic administration of another bromide salt, KBr.

Fmr1^−/− mice [4] = test: Direct social interaction test; format: in vivo, mouse
Method: as §1
(§4) Direct social interaction test. On testing day, a pair of unfamiliar mice (not cage mates, age-, sex- and treatment-matched) was introduced in each arena for 10 min (15 lx). Each arena received a black plastic floor (transparent to infrared). […] The mean duration of nose and paw contacts was calculated from previous data (61-63).
as §3

Shank3^Δex13-16−/− mice [5] = test: Direct social interaction test; format: in vivo, mouse; conditions: Shank3Δex13-16−/− mice
Method: as §1, §4, §3

Oprm1^−/− mice [6] = test: Tail-immersion test; format: in vivo, mouse; conditions: 50° C., NaBr 70 mg/kg, VU0155041 1 mg/kg, alone or combined, chronic
Method: as §1
Tail-immersion test. Nociceptive thresholds were assessed by immersing the tail of the mice (5 cm from the tip) successively into water baths at 48° C., 50° C. and 52° C. The latency to withdraw the tail was measured at each temperature, with a cutoff of 10 s.

Fmr1^−/− mice [7] = test: Motor stereotypies; format: in vivo, mouse; conditions: chronic NaBr 250 mg/kg once daily
Method: as §1
(§5) Motor stereotypies. To detect motor stereotypies in mutant versus wild-type animals, mice were individually placed in clear standard home cages (21×11×17 cm) filled with 3-cm deep fresh sawdust for 10 min (64). Light intensity was set at 30 lux. Trained experimenters scored numbers of head shakes, as well as rearing, burying, grooming, circling episodes and total time spent burying by direct observation.
as §3

Shank3^Δex13-16−/− mice [8] = test: Motor stereotypies; format: in vivo, mouse; conditions: Shank3Δex13-16−/− mice; chronic NaBr 250 mg/kg once daily
Method: as §1, §5, §3

[9] = chronic NaBr 250 mg/kg once daily
[10] = one week after interruption of NaBr 250 mg/kg

Compound: [Br-].[Na+] [NaBr, sodium bromide]
- food intake (Fmr1^−/− mice [1]): no modification in their food intake
- latency to eat (Fmr1^−/− mice [1]): reduced this latency
- food intake (Shank3^Δex13-16−/− mice [2]): had no effect on food intake
- latency to eat (Shank3^Δex13-16−/− mice [2]): normalized this latency to WT levels
- autistic-like deficits and motor stereotypies (Oprm1^−/− mice [3]): relieved autistic-like deficits and motor stereotypies in Oprm1^−/− mice in a similar way as it did after intra-peritoneal injection
- duration of nose contacts (Fmr1^−/− mice [4]; [9]): restored the duration of nose
- duration of paw contacts (Fmr1^−/− mice [4]; [9]): restored
- grooming after social contact (Fmr1^−/− mice [4]; [9]): suppressed grooming after social contact
- number of following episodes (Fmr1^−/− mice [4]; [9]): normalized the number of following episodes
- duration of paw contacts (Fmr1^−/− mice [4]; [10]): significant beneficial effects were still detected
- number of grooming episodes after a social contact (Fmr1^−/− mice [4]; [10]): significant beneficial effects were still detected
- duration of nose contacts (Shank3^Δex13-16−/− mice [5]; [9]): restored the duration of nose
- duration of paw contacts (Shank3^Δex13-16−/− mice [5]; [9]): restored
- grooming after social contact (Shank3^Δex13-16−/− mice [5]; [9]): suppressed grooming after social contact
- number of following episodes (Shank3^Δex13-16−/− mice [5]; [9]): normalized the number of following episodes
- duration of paw contacts (Shank3^Δex13-16−/− mice [5]; [10]): no effect of previous bromide treatment was longer detected
- grooming after social contact (Shank3^Δex13-16−/− mice [5]; [10]): remained efficiently suppressed
- flicking latency (nociceptive threshold) (Oprm1^−/− mice [6]): ineffective
- circling episodes (Fmr1^−/− mice [7]): normalized all these parameters to WT levels
- head shakes (Fmr1^−/− mice [7]): normalized all these parameters to WT levels
- circling episodes (Shank3^Δex13-16−/− mice [8]): normalized all these parameters to WT levels
- head shakes (Shank3^Δex13-16−/− mice [8]): normalized all these parameters to WT levels
- spontaneous grooming (Shank3^Δex13-16−/− mice [8]): normalized all these parameters to WT levels
